# Results from article PMC5244392, “Interspecies cathelicidin comparison reveals divergence in antimicrobial activity, TLR modulation, chemokine induction and regulation of phagocytosis” (Scientific Reports, 2017).
# Legend:
# E. coli O78 = experiment: Bacterial growth delay (Bioscreen C), E. coli; type: cell-based, Escherichia coli
# Procedure: (§1) E. coli O78 (Zoetis Animal Health, Kalamazoo, MI, USA), E. coli ATCC 25922, Staphylococcus aureus ATCC 29213, and methicillin resistant Staphylococcus aureus (MRSA) (WKZ-2, human clinical isolate) were grown overnight from a glycerol stock in Mueller Hinton Broth (MHB) (Becton Dickinson, USA). Before use, bacteria were grown to mid-log phase in MHB for 2 hours at 37 °C, 200 RPM. Murine RAW264.7 macrophages (ATCC-TIB-71) were obtained from the American Type Culture Collection (ATCC, Manassas, VA, USA) and cultured in DMEM (41966-029; Thermo Fisher Scientific, Waltham, MA, USA) supplemented with 10% FCS (Bodinco B.V., Alkmaar, the Netherlands) (DMEM + FCS) at 37 °C, 5.0% CO2. Cells were seeded in 96-wells plates at 5 × 10^5 cells/ml or 12-wells plates at 2 × 10^5/ml for adherence overnight prior to stimulation.
# (§2) Peptides (0.63 to 40 μM) and bacteria mid-log cultures (2 * 10^6 CFU/ml) were prepared in MHB or DMEM + FCS and mixed (100 μl peptide + 100 μl bacterial culture) in a Bioscreen C analyzer plate (Oy Growth Curves Ab Ltd, Helsingfors, Finland). Plates were placed in a Bioscreen C analyzer (Oy Growth Curves Ab Ltd) and bacteria were grown for 16 h at 37 °C with 200 RPM. The OD was measured every 15 minutes using a wideband filter (450–580 nm) to measure bacterial growth. The time needed grow above an OD of 0.6 was determined for all concentrations. Activity of peptides was expressed as the Cmax, the concentration of peptide required to delay the growth for 10 h compared to the control. Or, for peptides with low activity (no Cmax), activity was expressed as the hours of growth delay at 20 μM. Unlike the classic MIC and MBC determination used in microbiology, this method also enabled comparison of peptides with low antibacterial activity.
# (§3) Twelve cathelicidins from 6 different species were selected for this study, namely: human LL-37, murine CRAMP, dog K9CATH, equine CATH (eCATH)-1, -2 and -3, chicken CATH (chCATH)-1, -2, and -3, porcine PMAP-23 and -36 and PR-39 (Table 1). Antimicrobial activity against E. coli and MRSA was directly compared under standardized conditions in MHB, a medium optimized for bacterial growth. Bacterial growth delay was defined as the delay in hours for peptide-treated bacteria to reach an OD of 0.6, compared to the non-treated control. Cmax is the minimal concentration needed to delay growth for a minimum of 10 hours compared to the non-treated control (Table 1 and Fig. 1A).
# (§4) Figure 1 Antibacterial activity of cathelicidins. E. coli and MRSA (1 × 10^6 CFU/ml) of were grown in MHB or DMEM ± FCS for 16 hours under constant shaking (200 RPM). Every 15 minutes the OD was measured. Growth delay was defined as the time needed for peptide-treated bacteria to grow above an OD of 0.6 compared to the control bacteria (no peptide added) (A). Cathelicidins were tested in different concentrations (0.31 μM, 0.63 μM, 1.25 μM, 2.5 μM, 5 μM, 10 μM, and 20 μM) to determine the antimicrobial activity in MHB against E. coli (B) or MRSA (C) and in more physiological medium DMEM + FCS (D,E). Results are presented as average +/− SEM (N = 4).
# [1] = system: methicillin resistant Staphylococcus aureus (MRSA) (WKZ-2, human clinical isolate); experiment: Bacterial growth delay (Bioscreen C), MRSA; type: cell-based
# Procedure: as §1, §2, §3, §4
# RAW264.7 cells = experiment: Phagocytosis assay with fluorescent latex beads; type: cell-based, murine; details: latex beads 10 per cell, 30 min
# Procedure: Red fluorescent (λex 575 nm and λem 610 nm) carboxylate-modified polystyrene latex beads (0.5 μm; Sigma Aldrich, St. Louis, MO, USA) were washed three times with PBS and resuspended in culture medium. Peptide dilutions were prepared in culture medium and added to RAW264.7 cells, directly followed by the latex beads (ratio 10 beads to 1 cell). Cells were incubated for 30 minutes at 37 °C, 5% CO2 (energy-dependent uptake) or 0 °C (non-specific adherence), after which cells were washed extensively with ice-cold PBS supplemented with 1% FCS and 0.01% NaN3, to remove all free beads. After washing, cells were scraped and resuspended in FACS buffer (PBS supplemented with 0.5% BSA). Samples were measured with the BD FACSCanto II flow cytometer (BD Biosciences, San Jose, CA, USA) and analyzed with FlowJo software (Ashland, OR, USA). Mean fluorescence intensity (MFI), corrected for non-specific adherence, was used as an indicator for the number of beads taken up.
# While the above-described functions of cathelicidins are well-known, relatively little is known about the influence of cathelicidins on phagocytosis. Therefore, RAW264.7 cells were incubated with fluorescent beads to study the effect of cathelicidins on phagocytosis. The uptake was corrected for fluorescence measured after incubation on ice instead of 37 °C, which inhibits the active process of phagocytosis. After 30 minutes, 90% of the RAW264.7 cells took up latex beads (Fig. 4A). Histograms exemplify changes in bead phagocytosis with different concentrations of K9CATH (Fig. 4B), eCATH-2 (Fig. 4C) and chCATH-3 (Fig. 4D). Effect of all cathelicidins are depicted by the average mean fluorescence intensity (MFI) in Fig. 4E.
# Figure 4 Effects of cathelicidins on phagocytosis by RAW264.7 cells. RAW264.7 cells were incubated with cathelicidins (0.31 μM, 1.25 μM, and 5 μM) and red fluorescent latex beads (10 beads to 1 cell) at 37 °C (energy dependent uptake) or on ice (non-specific adherence) for 30 minutes. Histograms show control (no peptide present) bead uptake at 37 °C (gray, filled) and 0 °C (black line) (A), or uptake in presence of different concentrations of indicated cathelicidins (B–D); 0 μM (red, filled), 0.31 μM (black line), 1.25 μM (green line) or 5 μM (blue line). Uptake was quantified by determining the MFI after correction for 0 °C control (E). Results are presented as average +/− SEM (N = 3). Statistical differences were determined by Two-way ANOVA with Bonferroni post-hoc test.
sequence,measurement,setting,value
"RIIDLLWRVRRPQKPKFVTVWVR [PMAP-23, porcine α-helical cathelicidin, 23 residues, charge +6]","Max: hours growth delay with 20 μM cathelicidin, E. coli, DMEM","E. coli O78; DMEM + FCS, 20 μM peptide, given if no Cmax was reached, N = 4",3.5 h
same,"Max: hours growth delay with 20 μM cathelicidin, E. coli, MHB","E. coli O78; MHB, 20 μM peptide, given if no Cmax was reached, time to OD 0.6 vs control, N = 4",9.5 h
same,"Summary class, antimicrobial activity E. coli MHB","E. coli O78; MHB, − is not defined in the key",++ (++ = >8 hours inhibition at 20 μM)
same,"Cmax, MRSA, DMEM","[1]; DMEM + FCS, 1 × 10^6 CFU/ml, peptide 0.31-20 μM, 16 h, 37 °C, — = no Cmax reached up to 20 μM, N = 4",10 µM
same,"Summary class, antimicrobial activity S. aureus DMEM","[1]; DMEM + FCS, MRSA, − is not defined in the key",+++ (+++ = Cmax at ≤20 μM)
same,"Cmax, MRSA, MHB","[1]; MHB, 1 × 10^6 CFU/ml, peptide 0.31-20 μM, 16 h, 37 °C, — = no Cmax reached up to 20 μM, N = 4",20 µM
same,"Summary class, antimicrobial activity S. aureus MHB","[1]; MHB, MRSA, − is not defined in the key",+++ (+++ = Cmax at ≤20 μM)
same,"Summary class, phagocytosis","RAW264.7 cells; 37 °C, MFI corrected for 0 °C, peptide 0.31-5 μM, − = no significant effect, N = 3",↓↓ (↓↓ = significant decrease ≤5 μM)
same,"Effect on bead uptake (phagocytosis), in words","RAW264.7 cells; peptide 0.31, 1.25 and 5 μM",reduced bead-uptake in a dose-dependent manner
